Where two headings read alike, the source gives them in different places.
Assays:
[1] = target: T1, Epac1 (Homo sapiens, UniProt O95398); set-up: method as in PMID 12888551; settings: footnote c, see also ref 13; cited from earlier work
T1 construct: made in house
T1 sequence (O95398 150-881 isoform O95398-3): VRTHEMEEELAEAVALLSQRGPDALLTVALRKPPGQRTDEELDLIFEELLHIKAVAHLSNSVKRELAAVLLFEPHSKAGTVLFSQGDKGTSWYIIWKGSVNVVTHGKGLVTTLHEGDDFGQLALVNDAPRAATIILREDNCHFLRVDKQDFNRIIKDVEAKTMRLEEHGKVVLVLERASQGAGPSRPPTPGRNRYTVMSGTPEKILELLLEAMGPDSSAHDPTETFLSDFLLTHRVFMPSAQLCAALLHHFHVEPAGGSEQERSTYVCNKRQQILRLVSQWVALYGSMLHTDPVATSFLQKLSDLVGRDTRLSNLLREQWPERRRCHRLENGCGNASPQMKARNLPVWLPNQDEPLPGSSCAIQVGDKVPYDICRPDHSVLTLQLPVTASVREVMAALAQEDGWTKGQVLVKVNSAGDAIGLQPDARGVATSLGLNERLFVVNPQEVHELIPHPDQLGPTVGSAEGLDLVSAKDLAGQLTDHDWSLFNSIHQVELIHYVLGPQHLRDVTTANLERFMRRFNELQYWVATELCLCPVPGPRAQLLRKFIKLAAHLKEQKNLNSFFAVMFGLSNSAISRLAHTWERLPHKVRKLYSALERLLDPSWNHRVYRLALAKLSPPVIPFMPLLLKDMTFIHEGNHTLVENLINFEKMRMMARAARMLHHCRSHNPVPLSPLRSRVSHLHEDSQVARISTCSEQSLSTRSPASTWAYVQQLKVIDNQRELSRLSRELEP

[2] = target: T2, Epac2^Δ280 (Mus musculus, UniProt Q9EQZ6); assay: Epac activation assay (Rap1B•mGDP fluorescence nucleotide exchange), Epac2^Δ280; type: biochemical; settings: Epac2^Δ280; for Rel. kmax: maximal activity relative to cAMP
T2 construct: made in house
T2 sequence (Q9EQZ6 281-993 isoform Q9EQZ6-3): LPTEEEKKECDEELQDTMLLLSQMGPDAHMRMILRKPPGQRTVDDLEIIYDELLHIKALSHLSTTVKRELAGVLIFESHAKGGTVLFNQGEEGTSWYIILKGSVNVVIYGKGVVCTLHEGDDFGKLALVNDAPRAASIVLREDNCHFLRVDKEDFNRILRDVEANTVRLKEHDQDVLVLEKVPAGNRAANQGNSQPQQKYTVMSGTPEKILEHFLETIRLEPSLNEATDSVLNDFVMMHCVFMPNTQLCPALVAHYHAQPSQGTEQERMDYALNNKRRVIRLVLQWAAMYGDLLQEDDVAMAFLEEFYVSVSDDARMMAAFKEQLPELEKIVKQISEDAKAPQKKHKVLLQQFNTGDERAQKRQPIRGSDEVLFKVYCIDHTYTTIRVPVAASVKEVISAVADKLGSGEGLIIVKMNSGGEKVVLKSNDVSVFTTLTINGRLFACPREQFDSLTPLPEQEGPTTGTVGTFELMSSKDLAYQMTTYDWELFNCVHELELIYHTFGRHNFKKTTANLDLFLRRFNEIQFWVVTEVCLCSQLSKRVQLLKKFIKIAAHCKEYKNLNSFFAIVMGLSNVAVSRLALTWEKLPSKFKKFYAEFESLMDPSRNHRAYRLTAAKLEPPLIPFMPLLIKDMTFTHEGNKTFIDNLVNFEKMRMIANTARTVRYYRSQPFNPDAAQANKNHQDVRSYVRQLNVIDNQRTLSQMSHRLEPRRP
Experimental: (§1) Murine Epac2 was used as all previous structural studies were performed with it.
(§2) The activity of Epac was determined by a fluorescence assay. […] The fluorescence intensity of Rap1B•mGDP is approximately twice that of free mGDP, and thus, nucleotide exchange can be observed as a decay in fluorescence upon the addition of excess unlabeled GDP.

[3] = target: T3, Epac2^fl (Mus musculus, UniProt Q9EQZ6); assay: Epac activation assay, full length Epac2; type: biochemical; set-up: made in house; settings: Epac2^fl; for Rel. kmax: maximal activity relative to cAMP
T3 sequence (Q9EQZ6 1-993 isoform Q9EQZ6-3): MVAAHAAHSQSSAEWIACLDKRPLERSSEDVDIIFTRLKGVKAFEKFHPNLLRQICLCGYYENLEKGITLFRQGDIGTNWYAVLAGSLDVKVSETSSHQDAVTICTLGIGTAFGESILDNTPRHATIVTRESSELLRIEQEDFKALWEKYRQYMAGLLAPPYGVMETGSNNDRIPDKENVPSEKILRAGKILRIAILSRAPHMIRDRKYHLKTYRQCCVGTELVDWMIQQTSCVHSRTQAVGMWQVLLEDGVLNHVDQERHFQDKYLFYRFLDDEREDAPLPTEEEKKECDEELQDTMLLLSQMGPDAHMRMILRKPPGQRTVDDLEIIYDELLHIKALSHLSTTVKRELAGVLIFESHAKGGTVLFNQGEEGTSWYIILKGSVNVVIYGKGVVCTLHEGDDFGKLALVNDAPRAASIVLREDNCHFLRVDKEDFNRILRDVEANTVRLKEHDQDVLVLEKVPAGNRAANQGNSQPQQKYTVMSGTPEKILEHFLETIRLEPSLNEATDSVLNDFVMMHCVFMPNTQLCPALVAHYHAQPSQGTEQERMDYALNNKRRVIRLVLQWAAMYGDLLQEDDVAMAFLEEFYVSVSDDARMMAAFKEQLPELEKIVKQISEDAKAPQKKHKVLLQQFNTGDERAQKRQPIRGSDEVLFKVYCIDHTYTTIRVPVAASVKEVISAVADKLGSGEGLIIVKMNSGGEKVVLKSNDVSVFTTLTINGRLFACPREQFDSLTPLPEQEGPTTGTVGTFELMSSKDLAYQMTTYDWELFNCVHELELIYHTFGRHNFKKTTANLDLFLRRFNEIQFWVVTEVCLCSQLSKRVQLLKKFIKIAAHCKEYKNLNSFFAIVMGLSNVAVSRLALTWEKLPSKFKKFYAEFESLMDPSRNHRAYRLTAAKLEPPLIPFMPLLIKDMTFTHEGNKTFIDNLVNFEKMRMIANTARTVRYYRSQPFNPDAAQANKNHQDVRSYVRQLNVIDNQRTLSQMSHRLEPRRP
Experimental: as §1, §2

[4] = target: T1, Epac1; assay: Epac activation assay, Epac1; type: biochemical; settings: Epac1; for Rel. kmax: maximal activity relative to cAMP

SMILES	AC50 [1]	AC50 [2]	Rel. kmax [2]	Rel. kmax [1]	AC50 [3]	Rel. kmax [3]	AC50 [4]	Rel. kmax [4]
Nc1ncnc2c1ncn2[C@H]1C[C@@H]2OP(=O)(O)OC[C@H]2O1 [Z-001, 2′-dcAMP]	> 1000 µM	70 µM	1.4	–	–	–	–	–
Nc1ncnc2c1[nH]c(=O)n2C1OC2COP(=O)(O)OC2C1O [L-021, 8-OH-cAMP]	26 µM	0.6 µM	0.4	0.5^c	–	–	–	–
Nc1ncnc2c1nc(Cl)n2[C@@H]1O[C@@H]2COP(=O)(O)O[C@H]2[C@H]1O [L-001, 8-Cl-cAMP]	6.9 µM	0.3 µM	0.8	0.5^c	–	–	–	–
CSc1nc2c(N)ncnc2n1[C@@H]1O[C@@H]2COP(=O)(O)O[C@H]2[C@H]1SC [D-002, 8,2′-DMeT-cAMP]	–	2.6 µM	2.0	–	110 µM	2.4	17 µM	1.4
CO[C@H]1C2OP(O)(=S)OC[C@H]2O[C@H]1n1c(Br)nc2c(N)ncnc21 (some centres unmarked) [S-014, Sp-8-Br-2′-O-Me-cAMPS]	–	13 µM	2.0	–	> 80 µM	–	–	–
Nc1ncnc2c1nc(Br)n2[C@@H]1O[C@@H]2COP(O)(=S)O[C@@H]2C1O (some centres unmarked) [S-010, Sp-8-Br-cAMPS]	–	0.4 µM	3.5	–	8 µM	3.6	16 µM	1.0
CNc1nc2c(N)ncnc2n1[C@@H]1O[C@@H]2CO[P@](O)(=S)O[C@H]2[C@H]1O [S-030, Sp-8-MeA-cAMPS]	–	0.7 µM	8.4	–	10 µM	7.7	30 µM	1.4
Nc1ncnc2c1nc(N1CCCCC1)n2[C@@H]1O[C@@H]2COP(=O)(O)O[C@H]2[C@H]1O [L-018, 8-PIP-cAMP]	130 µM	13 µM	3.8	0.9^c	–	–	–	–
CO[C@H]1C2OP(=O)(O)OC[C@H]2O[C@H]1n1cnc2c(N)ncnc21 (some centres unmarked) [Z-004, 2′-O-Me-cAMP]	> 100 µM	32 µM	1.0	–	–	–	–	–
Nc1ncnc2c1nc(SCc1ccccc1)n2[C@@H]1O[C@@H]2CO[P@](O)(=S)O[C@H]2[C@H]1F [S-222, Sp-8-BnT-2′-F-cAMPS]	–	4.3 µM	4.2	–	15 µM	1.8	60 µM	0.09
CNc1nc2c(N)ncnc2n1[C@@H]1O[C@@H]2COP(=O)(O)O[C@H]2[C@H]1O [L-005, 8-MeA-cAMP]	19 µM	0.6 µM	3.3	0.5^c	–	–	–	–
Nc1ncnc2c1nc(Br)n2[C@@H]1O[C@@H]2COP(=O)(O)O[C@H]2[C@H]1O [L-002, 8-Br-cAMP]	6.2 µM	0.4 µM	0.9	0.5^c	–	–	–	–

— PMC4300089, “Structure-Guided Design of Selective Epac1 and Epac2 Agonists” (PLoS Biology, 2015)
